Our source for the EC50 values is patent publication US20170158702A1, “MULTIVALENT RAS BINDING COMPOUNDS” (KYRAS THERAPEUTICS, INC., priority 2015, published 2017).

Structures can show the parent of a compound that is named as a salt.

What all share (type): cell-based
One assay concerns NCI-H460. The assay can be described thus: Viability assay with NCI-H460 (CellTiter-Glo cytotoxicity assay, 72 h). Particulars: NCI-H460 cell line, 72 h after compounds addition. As to the method: (§1) NCI-H460 (Epithelial lung tissue; carcinoma; large cell lung cancer) were cultured in RPMI Medium 1640 (Invitrogen-22400105) supplemented with 10% fetal bovine serum (FBS; Invitrogen-10099141). All the cell lines were maintained in a humidified incubator at 37° C. with 5% CO2. Cell culture media and supplements were purchased from Invitrogen, and tissue culture flasks were purchased from Corning, 96-well plates were purchased from Greiner. CellTiter-Glo Luminescent Cell Viability Assay kits were purchased from Promega (Promega-G7573), cells counter Vi-Cell was purchased from Beckman, D300e digital dispenser was purchased from Tecan, detection instrument Envision was purchased from PerkinElmer.
(§2) Paclitaxel was purchased from SELLECK, test compounds, such as any one of the compounds disclosed herein, attained solubility in DMSO and when diluted into culture media. DMSO, solutions containing the test compounds, and culture media were warmed to 37° C. or room temperature for the solution preparation and dilutions.
(§3) NCI-H460 Cell line were seeded in 96-well plates (1200/well) and allowed to adhere to overnight (100 uL/well), for drug treatments with 2 fold dilution, 9 dose points, triplicates or vehicle control, compound stock solutions were prepared in DMSO and use D300e digital dispenser to add compounds to the wells to give the indicated final drug concentrations. Final DMSO concentration was 0.5%. Cellular ATP concentrations were assessed by using the CellTiter-Glo Cell Viability Assay as per the manufacturer's instructions 72 h after compounds addition. Additional cells lines were assayed with any one of the compounds disclosed herein according to the procedures described for the viability assay with NCI-H460.
(In general: Cellular ATP, detected with luciferase, serves as a proxy for viable cell number.)

The next assay relates to MIA PaCa-2. The assay can be described thus: Viability assay with MIA PaCa-2. To be noted: MIA PaCa-2, viability assay per Example 57. As to the method:
as §1, §2, §3
A viability assay with MIA PaCa-2 (Epithelial pancreas tissue; carcinoma) was performed with compounds listed in Table 15, according to the procedures described in Example 57.

Another assay has as its system HT-29. Briefly: Viability assay with HT-29. To be noted: HT-29, viability assay per Example 57. Here is the method: as §1, §2, §3
A viability assay with HT-29 (Colorectal adenocarcinoma) was performed with compounds listed in Table 18 according to the procedures described in Example 57.

In general, EC50 refers to the midpoint of the concentration-response curve. In the case of `COc1ccc(-c2cn(CCCN)c3ccc(CN4CCN(Cc5ccccc5Cl)CC4)cc23)cn1` [C141; HCl], the EC50 in the assay with NCI-H460, with MIA PaCa-2 and in the assay with HT-29 was at most 5 µM in each case.
Turning to `NCCCn1cc(-c2ccccc2CO)c2cc(CN3CCN(Cc4ccccc4Cl)CC3)ccc21` [C181; HCl], the half-maximal effective concentration (EC50) in the assay on NCI-H460, in the assay on MIA PaCa-2 and in the assay on HT-29 was at most 5 µM in each case.
For the molecule `FC(F)(F)Oc1ccc(-c2cn(C3CCNCC3)c3ccc(CN4CCC(Cc5ccccc5Cl)CC4)cc23)cc1` [C225; HCl], the EC50 in the assay with NCI-H460, with MIA PaCa-2 and with HT-29 was at most 5 µM in each case.
Regarding `NCCCn1cc(-c2c(F)cccc2C(N)=O)c2cc(CN3CCN(Cc4ccccc4Cl)CC3)ccc21` [C289; HCl], the EC50 in the assay with NCI-H460, with MIA PaCa-2 and with HT-29 was 5 to 10 µM in each case.
Consider `NCCCn1cc(-c2ccc(OC(F)(F)F)cc2CN)c2cc(CN3CCC(CC(F)(F)F)CC3)ccc21` [C252; HCl], for which the EC50 in the assay on NCI-H460, with MIA PaCa-2 and with HT-29 was at most 5 µM in each case.
`NCC(=O)NCc1ccc(-n2cc(-c3ccc(OC(F)(F)F)cc3)c3cc(CN4CCN(Cc5ccccc5Cl)CC4)ccc32)cn1` [C219; HCl]: the EC50 in the assay with NCI-H460, with MIA PaCa-2 and in the assay with HT-29 was at most 5 µM in each case.
In the case of `NCc1cc(OC(F)(F)F)ccc1-c1cn(CCCNC(=O)C2(N)CCNCC2)c2ccc(CN3CCN(Cc4ccccc4Cl)CC3)cc12` [C264; HCl], the concentration giving a half-maximal response (EC50) in the assay with NCI-H460, with MIA PaCa-2 and in the assay with HT-29 was 5 to 10 µM each time.
For the molecule `CCC1CCN(Cc2ccc3c(c2)c(-c2ccc(C)cc2CN)cn3CCCN)CC1` [C256; HCl], the EC50 in the assay on NCI-H460, with MIA PaCa-2 and in the assay with HT-29 was 5 to 10 µM in each case.
For `NCCc1cccc(-n2cc(-c3ccc(OC(F)(F)F)cc3)c3cc(CN4CCN(Cc5ccccc5Cl)CC4)ccc32)c1` [C235; Formic Acid], the concentration for a half-maximal effect (EC50) with NCI-H460, with MIA PaCa-2 and in the assay on HT-29 was at most 5 µM in each case.
As to `NCCCn1cc(-c2ccc(OC(F)(F)F)cc2CN)c2cc(CN3CCS(=O)(=O)CC3)ccc21` [C288; HCl], the EC50 with NCI-H460, in the assay with MIA PaCa-2 and with HT-29 was at most 5 µM throughout.
Take `NCc1cc(-n2cc(-c3ccc(OC(F)(F)F)cc3)c3cc(CN4CCN(Cc5ccccc5Cl)CC4)ccc32)ccn1` [C229; Formic Acid]: the EC50 in the assay on NCI-H460, in the assay on MIA PaCa-2 and in the assay on HT-29 was at most 5 µM throughout.
As to `Nc1ccc(Cn2cc(-c3ccc(OC(F)(F)F)cc3)c3cc(CN4CCN(Cc5ccccc5Cl)CC4)ccc32)cn1` [C232; Formic Acid], the concentration giving a half-maximal response (EC50) with NCI-H460, in the assay with MIA PaCa-2 and with HT-29 was at most 5 µM in each case.
With `COc1ccc(-c2cn(CCCN)c3ccc(CN4CCN(Cc5ccccc5Cl)CC4)cc23)c(CN(C)C)c1` [C284; HCl], the EC50 with NCI-H460, in the assay on MIA PaCa-2 and in the assay with HT-29 was at most 5 µM each time.
Turning to `Cc1cccnc1CN1CCN(Cc2ccc3c(c2)c(-c2ccc(OC(F)(F)F)cc2)cn3CCCN)CC1` [C145; HCl], the EC50 in the assay with NCI-H460, in the assay on MIA PaCa-2 and in the assay with HT-29 was at most 5 µM in each case.
As for `NCCCn1cc(-c2ccc(OC(F)(F)F)cc2)c2cc(S(=O)(=O)N3CCN(Cc4ccccc4Cl)CC3)ccc21` [C153; Formic Acid], the EC50 in the assay on NCI-H460, in the assay on MIA PaCa-2 and in the assay on HT-29 was at most 5 µM throughout.
With `COc1cccc(CN2CCN(Cc3ccc4c(c3)c(-c3ccc(OC(F)(F)F)cc3CN)cn4C3CCNCC3)CC2)c1` [C274; HCl], the EC50 in the assay on NCI-H460, with MIA PaCa-2 and in the assay with HT-29 was at most 5 µM each time.
Consider `NC1(C(=O)NCCCn2nc(-c3ccc(OC(F)(F)F)cc3)c3cc(CN4CCN(Cc5ccccc5Cl)CC4)ccc32)CCNCC1` [C201; HCl], for which the EC50 with NCI-H460, in the assay on MIA PaCa-2 and with HT-29 was at most 5 µM each time.
Regarding `NCCCn1cc(-c2ccc(OC(F)(F)F)cc2CN)c2cc(CN3CCC(Nc4ccccc4Cl)CC3)ccc21` [C241; HCl], the concentration giving a half-maximal response (EC50) in the assay on NCI-H460, in the assay on MIA PaCa-2 and in the assay with HT-29 was at most 5 µM each time.
In the case of `NCCCn1cc(-c2cn[nH]c2)c2cc(CN3CCN(Cc4ccccc4Cl)CC3)ccc21` [C192; HCl], the concentration giving a half-maximal response (EC50) in the assay on NCI-H460, with MIA PaCa-2 and in the assay with HT-29 was 5 to 10 µM each time.
Turning to `NCCCn1cc(-c2ccc(OC(F)(F)F)cc2CN)c2cc(CN3CCC(Nc4cccc(Cl)c4)CC3)ccc21` [C247; HCl], the EC50 in the assay on NCI-H460, in the assay on MIA PaCa-2 and in the assay with HT-29 was at most 5 µM each time.
Take `COc1cc(CN2CCN(Cc3ccc4c(c3)c(-c3ccc(OC(F)(F)F)cc3CN)cn4C3CCNCC3)CC2)cc(OC)c1` [C275; HCl]: the EC50 in the assay with NCI-H460, with MIA PaCa-2 and in the assay on HT-29 was at most 5 µM each time.
Regarding `NCCCn1cc(-c2ccc(OC(F)(F)F)cc2)c2c(CN3CCN(Cc4ccc(OC(F)(F)F)cc4)CC3)cccc21` [C186; HCl], the EC50 with NCI-H460, in the assay with MIA PaCa-2 and in the assay with HT-29 was 5 to 10 µM each time.
On to `Nc1ccc(Cn2cc(-c3ccc(OC(F)(F)F)cc3)c3cc(CN4CCN(Cc5ccccc5Cl)CC4)ccc32)cc1` [C220; Formic Acid], for which the EC50 in the assay with NCI-H460, with MIA PaCa-2 and with HT-29 was 5 to 10 µM in each case.
For the molecule `Cc1ccc(-c2cn(CCCN)c3ccc(CN4CCN(Cc5ccccc5Cl)CC4)cc23)c(CN)c1` [C223; HCl], the EC50 with NCI-H460, with MIA PaCa-2 and in the assay on HT-29 was at most 5 µM throughout.
Turning to `COc1cc(CN(C)CCN(C)Cc2ccc3c(c2)c(-c2ccc(OC(F)(F)F)cc2CN)cn3CCCN)cc(OC)c1` [C297; HCl], the EC50 with NCI-H460, in the assay with MIA PaCa-2 and with HT-29 was at most 5 µM throughout.
For `NCCCn1cc(-c2ccc(OC(F)(F)F)cc2)c2cc(CN3CCS(=O)(=O)CC3)ccc21` [C292; Formic Acid], the EC50 with NCI-H460 is at most 5 µM; with MIA PaCa-2, at most 5 µM; in the assay with HT-29 it was 5 to 10 µM.
For `NC1CCC(n2cc(-c3ccc(OC(F)(F)F)cc3)c3cc(CN4CCN(Cc5ccccc5Cl)CC4)ccc32)C1` (stereo not shown) [C134; HCl], the EC50 with NCI-H460, in the assay on MIA PaCa-2 and with HT-29 was at most 5 µM throughout.
As for `NCCCn1cc(-c2ccc(OC(F)(F)F)cc2CN)c2cc(CN3CCCC(N)C3)ccc21` (stereo not shown) [C259; HCl], the concentration giving a half-maximal response (EC50) in the assay on NCI-H460, in the assay with MIA PaCa-2 and in the assay on HT-29 was 5 to 10 µM in each case.
For `NCCCn1cc(-c2ccccc2C(N)=O)c2cc(CN3CCN(Cc4ccccc4Cl)CC3)ccc21` [C185; HCl], the 50% effective concentration (EC50) in the assay with NCI-H460, with MIA PaCa-2 and in the assay with HT-29 was 5 to 10 µM each time.
Consider `NCCCn1cc(-c2ccc(OC(F)(F)F)cc2)c2cc(CN3CCC(Oc4ccc(Cl)cc4)CC3)ccc21` [C216; HCl], for which the EC50 with NCI-H460, in the assay on MIA PaCa-2 and in the assay with HT-29 was at most 5 µM each time.
For the molecule `FC(F)(F)Oc1ccc(-c2cn(CCCCNc3ccccn3)c3ccc(CN4CCN(Cc5ccccc5Cl)CC4)cc23)cc1` [C202; Formic Acid], the EC50 in the assay with NCI-H460 was at most 5 µM; in the assay on MIA PaCa-2 it was 5 to 10 µM; in the assay with HT-29, 5 to 10 µM.
On to `Cc1ncc(CN2CCN(Cc3ccc4c(c3)c(-c3ccc(OC(F)(F)F)cc3)cn4CCCN)CC2)[nH]1` [C195; HCl], for which the EC50 in the assay on NCI-H460, with MIA PaCa-2 and in the assay with HT-29 was 5 to 10 µM throughout.
In the assay on HT-29, `NCCCn1cc(-c2ccccc2CCN)c2cc(CN3CCN(Cc4ccccc4Cl)CC3)ccc21` [C131; HCl] showed a 50% effective concentration (EC50) of at most 5 µM.
Turning to `CN1CCN(Cc2ccc3c(c2)c(-c2ccc(OC(F)(F)F)cc2)cn3CCCNC(=O)C2(N)CCNCC2)CC1` [C57; HCl], the EC50 in the assay on NCI-H460 and in the assay with MIA PaCa-2 was over 30 µM each time.
For the molecule `COc1ccc(Cl)c(CN2CCN(Cc3ccc4c(c3)c(-c3ccc(OC(F)(F)F)cc3CN)cn4CCCN)CC2)c1` [C307; HCl], the EC50 in the assay on NCI-H460 and with MIA PaCa-2 was at most 5 µM each time.
Turning to `NCC(N)C(=O)NCCCn1cc(-c2ccc(OC(F)(F)F)cc2)c2cc(CN3CCN(Cc4c(Cl)cccc4Cl)CC3)ccc21` (stereo not shown) [C81; HCl], the EC50 in the assay with NCI-H460 and with MIA PaCa-2 was at most 5 µM each time.
On to `NC1(C(=O)NCCCn2cc(-c3ccc(OC(F)(F)F)cc3)c3cc(CN4CCN(Cc5ccccc5F)CC4)ccc32)CCNCC1` [C60; Formic acid], for which the EC50 with NCI-H460 and in the assay with MIA PaCa-2 was at most 5 µM each time.
Regarding `NC1(C(=O)NCCCn2cc(-c3ccc(OC(F)(F)F)cc3)c3cc(CN4CCN(Cc5c(Cl)cccc5Cl)CC4)ccc32)CCCCC1` [C82; HCl], the EC50 with NCI-H460 and in the assay with MIA PaCa-2 was at most 5 µM each time.
For the molecule `NC1(C(=O)NCCCn2cc(-c3ccc(OC(F)(F)F)cc3)c3cc(CN4CC5CC4CN5Cc4c(Cl)cccc4Cl)ccc32)CCNCC1` (stereo not shown) [C77; HCl], the concentration giving a half-maximal response (EC50) in the assay on NCI-H460 and with MIA PaCa-2 was at most 5 µM in each case.
